The results in this text go back to US6525022B1, “Receptor specific atrial natriuretic peptides” (Genentech, Inc., priority 1993, dated 2003).

The target in data set [1] is human NEP (hNEP), endopeptidase 24.11 (Homo sapiens, UniProt P08473). Put plainly: Degradation of ANF variants by human NEP, half-life by HPLC.
Data set [2] concerns the target T1, human natriuretic peptide receptor-A (human, UniProt P16066 33-1061).
T1 construct: whole, on cells; also called hNPR-A; human NPR-A
T1 sequence (looked up): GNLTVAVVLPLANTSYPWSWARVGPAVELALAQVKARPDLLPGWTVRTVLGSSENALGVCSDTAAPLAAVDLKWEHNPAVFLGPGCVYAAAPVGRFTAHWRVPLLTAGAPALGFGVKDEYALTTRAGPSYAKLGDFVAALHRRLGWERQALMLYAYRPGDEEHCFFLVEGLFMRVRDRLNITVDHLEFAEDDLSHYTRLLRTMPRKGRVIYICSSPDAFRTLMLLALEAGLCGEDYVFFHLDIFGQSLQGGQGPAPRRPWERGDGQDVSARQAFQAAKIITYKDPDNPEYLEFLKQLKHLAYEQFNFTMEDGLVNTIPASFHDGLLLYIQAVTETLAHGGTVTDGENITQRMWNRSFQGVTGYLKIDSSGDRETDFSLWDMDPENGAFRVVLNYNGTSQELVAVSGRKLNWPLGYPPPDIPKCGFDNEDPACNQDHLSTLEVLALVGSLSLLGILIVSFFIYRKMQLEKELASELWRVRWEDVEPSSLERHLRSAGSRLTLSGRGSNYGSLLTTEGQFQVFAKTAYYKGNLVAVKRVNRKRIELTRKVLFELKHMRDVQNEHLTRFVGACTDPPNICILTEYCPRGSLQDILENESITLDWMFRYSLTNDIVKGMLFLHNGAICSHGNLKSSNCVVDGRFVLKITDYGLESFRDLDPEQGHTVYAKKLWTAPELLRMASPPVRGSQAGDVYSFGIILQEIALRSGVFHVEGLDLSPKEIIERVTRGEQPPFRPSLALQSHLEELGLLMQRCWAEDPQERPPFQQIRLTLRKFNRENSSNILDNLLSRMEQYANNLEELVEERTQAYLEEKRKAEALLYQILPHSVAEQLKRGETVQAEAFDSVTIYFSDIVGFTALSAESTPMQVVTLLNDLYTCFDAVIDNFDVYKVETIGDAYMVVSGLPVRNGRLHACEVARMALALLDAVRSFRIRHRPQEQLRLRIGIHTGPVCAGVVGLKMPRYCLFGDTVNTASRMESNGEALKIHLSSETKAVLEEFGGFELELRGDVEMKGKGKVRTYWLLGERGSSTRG
The data set is described as follows: competition binding, Table I; tracer and receptor format not given.

In data set [3] the target is T2, human natriuretic peptide clearance receptor-C (human, UniProt P17342 27-541).
T2 construct: whole, on cells; also called hNPR-C; human NPR-C
T2 sequence (looked up): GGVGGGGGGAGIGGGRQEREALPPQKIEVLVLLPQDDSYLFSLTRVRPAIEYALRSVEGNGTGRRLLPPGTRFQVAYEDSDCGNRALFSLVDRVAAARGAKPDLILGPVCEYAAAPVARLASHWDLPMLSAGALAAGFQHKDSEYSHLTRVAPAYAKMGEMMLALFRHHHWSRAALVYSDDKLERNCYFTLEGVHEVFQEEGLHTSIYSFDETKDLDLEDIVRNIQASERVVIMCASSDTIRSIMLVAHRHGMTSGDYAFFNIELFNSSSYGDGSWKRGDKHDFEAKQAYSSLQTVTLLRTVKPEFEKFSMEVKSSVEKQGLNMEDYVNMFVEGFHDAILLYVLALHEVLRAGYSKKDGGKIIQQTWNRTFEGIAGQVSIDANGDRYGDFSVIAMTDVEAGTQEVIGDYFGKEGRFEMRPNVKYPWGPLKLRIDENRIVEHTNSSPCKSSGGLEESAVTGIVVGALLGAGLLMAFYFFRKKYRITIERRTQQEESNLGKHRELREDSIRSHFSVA
The data set is described as above.

[4] abbreviates: isolated human NEP (endopeptidase 24.11) in HEPES buffer, Half-Life (min.), FIG. 6: ANF variants 0.5 mg/ml, NEP 0.225 mg/ml.
Setting [5] is: isolated human NEP (endopeptidase 24.11) in HEPES buffer, Half-Life (min.), FIG. 7: ANF variants 32 nM/ml, NEP 0.45 μg/ml.

Read-outs that look alike come from different tables or passages of the source. Where a SMILES comes first, the peptide text is derived from it. Bridges are numbered along the chain shown (N, C = ends). Where no end group is shown, it is not given here. [ ]: non-standard residue; d: D form. Cha = N[C@@H](CC1CCCCC1)C(=O)O; hCys = N[C@@H](CCS)C(=O)O

Chain of human NEP (hNEP), endopeptidase 24.11 (P08473 whole entry): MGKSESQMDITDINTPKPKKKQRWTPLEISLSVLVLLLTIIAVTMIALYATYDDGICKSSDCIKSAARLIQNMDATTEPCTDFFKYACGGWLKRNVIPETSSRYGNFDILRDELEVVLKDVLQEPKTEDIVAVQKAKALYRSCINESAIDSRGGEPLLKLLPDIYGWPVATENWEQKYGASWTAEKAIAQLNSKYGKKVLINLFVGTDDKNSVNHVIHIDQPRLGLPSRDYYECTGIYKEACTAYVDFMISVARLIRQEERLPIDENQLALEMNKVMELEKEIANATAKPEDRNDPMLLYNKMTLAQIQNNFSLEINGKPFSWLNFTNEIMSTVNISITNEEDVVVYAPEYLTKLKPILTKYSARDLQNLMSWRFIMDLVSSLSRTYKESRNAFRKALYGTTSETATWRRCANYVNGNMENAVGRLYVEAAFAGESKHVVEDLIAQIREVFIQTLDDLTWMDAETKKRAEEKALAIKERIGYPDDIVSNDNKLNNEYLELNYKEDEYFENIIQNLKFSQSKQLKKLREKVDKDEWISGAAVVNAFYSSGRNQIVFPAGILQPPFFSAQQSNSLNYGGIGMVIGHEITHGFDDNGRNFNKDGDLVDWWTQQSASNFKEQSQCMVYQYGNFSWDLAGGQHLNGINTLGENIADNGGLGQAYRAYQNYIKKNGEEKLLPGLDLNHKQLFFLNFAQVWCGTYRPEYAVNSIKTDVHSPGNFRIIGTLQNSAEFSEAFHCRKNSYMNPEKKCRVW

A word on the half-life: it is the time in which the quantity being followed falls by half. A higher half-life goes with slow decline. Consider `CC[C@H](C)[C@@H]1NC(=O)[C@H](CCCNC(=N)N)NC(=O)[C@H](CC(=O)O)NC(=O)[C@H]([C@@H](C)CC)NC(=O)[C@H](CCCNC(=N)N)NC(=O)CNC(=O)CNC(=O)[C@H](Cc2ccccc2)NC(=O)[C@@H](NC(=O)[C@H](CO)NC(=O)[C@H](CO)NC(=O)[C@H](CCCNC(=N)N)NC(=O)[C@H](CCCNC(=N)N)NC(=O)[C@H](CC(C)C)NC(=O)[C@H](CO)NC(=O)[C@H](CCCNC(=N)N)NC(=O)[C@@H]2CCCN2C(=O)[C@H](C)NC(=O)[C@@H](N)[C@@H](C)O)CSSC[C@@H](C(=O)N[C@@H](CC(N)=O)C(=O)N[C@@H](CO)C(=O)N[C@@H](Cc2ccccc2)C(=O)N[C@@H](CCCNC(=N)N)C(=O)N[C@@H](Cc2ccc(O)cc2)C(=O)O)NC(=O)CNC(=O)[C@H](CC(C)C)NC(=O)CNC(=O)[C@H](CO)NC(=O)[C@H](CCC(N)=O)NC(=O)[C@H](C)NC(=O)[C@H](CCCNC(=N)N)NC1=O` [ANF 23] (H-TAPRSLRRSSCFGGRIDRIRAQSGLGCNSFRY-OH; disulfide 11-27), for which the half-life at 0.5 mg/ml in data set [1] amounted to 12.3 h.
As to `CC[C@H](C)[C@@H]1NC(=O)[C@H](CCCNC(=N)N)NC(=O)[C@H](CC(=O)O)NC(=O)[C@H]([C@@H](C)CC)NC(=O)[C@H](CCCNC(=N)N)NC(=O)CNC(=O)CNC(=O)[C@H](Cc2ccccc2)NC(=O)[C@@H](NC(=O)[C@H](CO)NC(=O)[C@H](CO)NC(=O)[C@H](CCCNC(=N)N)NC(=O)[C@H](CCCNC(=N)N)NC(=O)[C@H](CC(C)C)NC(=O)[C@@H](N)CO)CSSC[C@@H](C(=O)N[C@@H](CC(N)=O)C(=O)N[C@@H](CO)C(=O)N[C@@H](Cc2ccccc2)C(=O)N[C@@H](CCCNC(=N)N)C(=O)N[C@@H](Cc2ccc(O)cc2)C(=O)O)NC(=O)CNC(=O)[C@H](CC(C)C)NC(=O)CNC(=O)[C@H](CO)NC(=O)[C@H](CCC(N)=O)NC(=O)[C@H](C)NC(=O)[C@H](CCCNC(=N)N)NC1=O` [ANF 24], the half-life at 0.5 mg/ml in data set [1] (setting [4]) is 10 h.
As for `CC[C@H](C)[C@@H]1NC(=O)[C@H](CO)NC(=O)[C@H](CC(=O)O)NC(=O)[C@H]([C@@H](C)CC)NC(=O)[C@H](CCCNC(=N)N)NC(=O)CNC(=O)CNC(=O)[C@H](Cc2ccccc2)NC(=O)[C@@H](NC(=O)[C@H](CO)NC(=O)[C@H](CO)NC(=O)[C@H](CCCNC(=N)N)NC(=O)[C@H](CCCNC(=N)N)NC(=O)[C@H](CC(C)C)NC(=O)[C@@H](N)CO)CSSC[C@@H](C(=O)N[C@@H](CC(N)=O)C(=O)N[C@@H](CO)C(=O)N[C@@H](Cc2ccccc2)C(=O)N[C@@H](CCCNC(=N)N)C(=O)N[C@@H](Cc2ccc(O)cc2)C(=O)O)NC(=O)CNC(=O)[C@H](CC(C)C)NC(=O)CNC(=O)[C@H](CO)NC(=O)[C@H](CCC(N)=O)NC(=O)[C@H](C)NC(=O)[C@H](CCCNC(=N)N)NC1=O` [ANF 25] (H-SLRRSSCFGGRIDSIRAQSGLGCNSFRY-OH; disulfide 7-23 (inferred); N-terminus and C-terminus assumed), the half-life at 32 nM/ml in data set [1] (setting [5]) is 3.32 h.
The same measure, in the same setting: in the case of `CC[C@H](C)[C@@H]1NC(=O)[C@H](CCCNC(=N)N)NC(=O)[C@H](CC(=O)O)NC(=O)[C@H]([C@@H](C)CC)NC(=O)[C@H](CO)NC(=O)CNC(=O)[C@H]([C@@H](C)O)NC(=O)[C@H](Cc2ccccc2)NC(=O)[C@@H](NC(=O)[C@H](CO)NC(=O)[C@H](CO)NC(=O)[C@H](CCCNC(=N)N)NC(=O)[C@H](CCCNC(=N)N)NC(=O)[C@H](CC(C)C)NC(=O)[C@@H](N)CO)CSSC[C@@H](C(=O)N[C@@H](CC(N)=O)C(=O)N[C@@H](CO)C(=O)N[C@@H](Cc2ccccc2)C(=O)N[C@@H](CCCNC(=N)N)C(=O)N[C@@H](Cc2ccc(O)cc2)C(=O)O)NC(=O)CNC(=O)[C@H](CC(C)C)NC(=O)CNC(=O)[C@H](CO)NC(=O)[C@@H]2CCCN2C(=O)[C@H](C)NC(=O)[C@H](CCCNC(=N)N)NC1=O` [ANF 31] (H-SLRRSSCFTGSIDRIRAPSGLGCNSFRY-OH; disulfide 7-23; C-terminus assumed) it was 2.97 h.
Consider `CC[C@H](C)[C@@H]1NC(=O)[C@H](CCCNC(=N)N)NC(=O)[C@H](CC(=O)O)NC(=O)[C@H](CCSC)NC(=O)[C@H](CO)NC(=O)CNC(=O)[C@H]([C@@H](C)O)NC(=O)[C@H](Cc2ccccc2)NC(=O)[C@@H](NC(=O)[C@H](CO)NC(=O)[C@H](CO)NC(=O)[C@H](CCCNC(=N)N)NC(=O)[C@H](CCCNC(=N)N)NC(=O)[C@H](CC(C)C)NC(=O)[C@@H](N)CO)CSSC[C@@H](C(=O)N[C@@H](CC(N)=O)C(=O)N[C@@H](CO)C(=O)N[C@@H](Cc2ccccc2)C(=O)N[C@@H](CCCNC(=N)N)C(=O)N[C@@H](Cc2ccc(O)cc2)C(=O)O)NC(=O)CNC(=O)[C@H](CC(C)C)NC(=O)CNC(=O)[C@H](CO)NC(=O)[C@H](CCC(N)=O)NC(=O)[C@H](C)NC(=O)CNC1=O` [ANF 50] (H-SLRRSSCFTGSMDRIGAQSGLGCNSFRY-OH; disulfide 7-23; C-terminus assumed), for which, in data set [1] (setting [4]), the half-life at 0.5 mg/ml was determined as 1.55 h.
In the case of `CC[C@H](C)[C@@H]1NC(=O)[C@H](CCCNC(=N)N)NC(=O)[C@H](CC(=O)O)NC(=O)[C@H](CCSC)NC(=O)[C@@H]2CCCN2C(=O)[C@H](CCCNC(=N)N)NC(=O)[C@H](CCC(=O)O)NC(=O)[C@H](Cc2ccccc2)NC(=O)[C@@H](NC(=O)[C@H](CO)NC(=O)[C@H](CO)NC(=O)[C@H](CCCNC(=N)N)NC(=O)[C@H](CCCNC(=N)N)NC(=O)[C@H](CC(C)C)NC(=O)[C@@H](N)CO)CSSC[C@@H](C(=O)N[C@@H](CC(N)=O)C(=O)N[C@@H](CO)C(=O)N[C@@H](Cc2ccccc2)C(=O)N[C@@H](CCCNC(=N)N)C(=O)N[C@@H](Cc2ccc(O)cc2)C(=O)O)NC(=O)CNC(=O)[C@H](CC(C)C)NC(=O)CNC(=O)[C@H](CO)NC(=O)[C@H](CCC(N)=O)NC(=O)[C@H](C)NC(=O)CNC1=O` [ANF 51] (H-SLRRSSCFERPMDRIGAQSGLGCNSFRY-OH; disulfide 7-23; C-terminus assumed), the half-life at 32 nM/ml in data set [1] (isolated human NEP (endopeptidase 24.11) in HEPES buffer, Half-life, FIG. 8: 32 nM/ml peptide, 0.075 μg/ml NEP) turned out to be 32.1 h; in data set [1] (isolated human NEP (endopeptidase 24.11) in HEPES buffer, Half-life, FIG. 8: 32 nM/ml peptide, 0.15 μg/ml NEP) it was 4.48 h.
In turn, `CC[C@H](C)[C@@H]1NC(=O)[C@H](CCCNC(=N)N)NC(=O)[C@H](CC(=O)O)NC(=O)[C@H]([C@@H](C)CC)NC(=O)[C@H](CO)NC(=O)CNC(=O)[C@H]([C@@H](C)O)NC(=O)[C@H](CC2CCCCC2)NC(=O)[C@@H](NC(=O)[C@H](CO)NC(=O)[C@H](CO)NC(=O)[C@H](CCCNC(=N)N)NC(=O)[C@H](CCCNC(=N)N)NC(=O)[C@H](CC(C)C)NC(=O)[C@@H](N)CO)CSSC[C@@H](C(=O)N[C@@H](CC(N)=O)C(=O)N[C@@H](CO)C(=O)N[C@@H](Cc2ccccc2)C(=O)N[C@@H](CCCNC(=N)N)C(=O)N[C@@H](Cc2ccc(O)cc2)C(=O)O)NC(=O)CNC(=O)[C@H](CC(C)C)NC(=O)CNC(=O)[C@H](CO)NC(=O)[C@H](CCC(N)=O)NC(=O)[C@H](C)NC(=O)[C@H](CCCNC(=N)N)NC1=O` [ANF 79] (H-SLRRSSC[Cha]TGSIDRIRAQSGLGCNSFRY-OH; disulfide 7-23; C-terminus assumed) came in with a half-life at 32 nM/ml in data set [1] (setting [5]) of 7.95 h.
The IC50 is the midpoint of a concentration-inhibition curve. Higher therefore signals weaker potency. Molecule SLDRSSCFTGSLDSIRA[hCys]SGLGCNSFR[hCys] (disulfide 18-28, 7-23) [ANF 70] yielded an IC50 in data set [2] of 3.3 nM.
For SLRRSSC[dS]FTGSIDRIRAQSGLGCNSFRY (disulfide 7-24) [ANF 74], the results for the IC50 in data set [3] and in data set [2] were 10000 nM and 29.4 nM, respectively.
